Columns and labels:
[1] = system: H1975 (KRAS wild type human lung adenocarcinoma cell line); experiment: KRAS 3D-Cell Proliferation Assay, H1975 (Example 503); assay type: cell-based; details: Homo sapiens, NCI-H1975, 168 h, H1975 3D culture, 7 days, CellTiter-Glo 3D; read-out: Prolif H1975 3D ATP IC50
Summary of the method: (§1)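 IC50 values derive from 4-parameter Hill fits of normalized luminescence, where DMSO sets 0% and 1 μM staurosporine 100% inhibition. 3D cultures in RPMI-1640 with 10% fetal bovine serum were exposed to compound for 7 days before CellTiter-Glo 3D lysis.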

[2] = system: HPAC (homozygous mutant KRAS G12D human pancreatic cell line); experiment: KRAS 3D-Cell Proliferation Assay, HPAC (Example 503); assay type: cell-based; details: Homo sapiens, HPAC, 168 h, HPAC 3D culture, 7 days, CellTiter-Glo 3D; read-out: Prolif HPAC 3D ATP IC50
Summary of the method: as §1

Row | Compound | IC50 [1] [nM] | IC50 [2] [nM]
1 | CO[C@@H]1CCN(CC2(COc3nc4c5c(nc(-c6cc(N)nc(C)c6C(F)(F)F)c(F)c5n3)O[C@@H](C)[C@@H]3[C@@H]5CC[C@H](CN43)N5)CC2)C[C@@H]1F [Compound 275, 4-((5S,5aS,6S,9R)-1-fluoro-12-((1-(((3S,4R)-3-fluoro-4-methoxypiperidin-1-yl)methyl)cyclopropyl)methoxy)-5-methyl-5a,6,7,8,9,10-hexahydro-5H-4-oxa-3,10a,11,13,14-pentaaza-6,9-methanonaphtho[1,8-ab]heptalene-2-yl)-6-methyl-5-(trifluoromethyl)pyridin-2-amine] | 5180 | 3.29
2 | Cc1c(F)c(N)cc(-c2nc3c4c(nc(OCC5(CN6CCO[C@@H](CF)C6)CC5)nc4c2F)N2C[C@H]4CC[C@H](N4)[C@H]2[C@H](C)O3)c1C(F)(F)F [Compound 172, 2-Fluoro-5-((5S,5aS,6S,9R)-1-fluoro-12-((1-(((R)-2-(fluoromethyl)morpholino)methyl)cyclopropyl)methoxy)-5-methyl-5a,6,7,8,9,10-hexahydro-5H-4-oxa-3,10a,11,13,14-pentaaza-6,9-methanonaphtho[1,8-ab]heptalen-2-yl)-3-methyl-4-(trifluoromethyl)aniline] | 864 | 1.72
3 | Cc1c(F)c(N)cc(-c2nc3c4c(nc(OCC5CCC6CC(C(=O)N(C)C)CCN56)nc4c2F)N2CC4CCC(N4)C2C(C)O3)c1C(F)(F)F (single isomer, unassigned) [133 (isomer 4)] | 2080 | 14.1
4 | Cc1c(F)c(N)cc(-c2nc3c4c(nc(OC[C@@]56CCCN5C[C@H](F)C6)nc4c2F)N2CCNC[C@H]2C(C)O3)c1C(F)(F)F (single isomer, unassigned) [235 (isomer 2)] | 262 | 136
5 | Cc1c(F)c(N)cc(-c2nc3c4c(nc(OC[C@@]56CCCN5C[C@H](F)C6)nc4c2F)N2C[C@H]4CC[C@H](NC4)[C@H]2CO3)c1C(F)(F)F [Compound 236, 2-Fluoro-5-((5aS,6S,9S)-1-fluoro-12-(((2R,7aS)-2-fluorotetrahydro-1H-pyrrolizin-7a(5H)-yl)methoxy)-5a,6,7,8,9,10-hexahydro-5H-4-oxa-3,10a,11,13,15-pentaaza-6,9-ethanonaphtho[1,8-ab]heptalene-2-yl)-3-methyl-4-(trifluoromethyl)aniline] | 14500 | 2000
6 | Cc1nc(N)cc(-c2nc3c4c(nc(OCC5(CN6CC7CCC6CO7)CC5)nc4c2F)N2C[C@H]4CC[C@H](N4)[C@H]2[C@H](C)O3)c1C(F)(F)F [Compound 211, 4-((5S,5aS,6S,9R)-12-((1-((2-Oxa-5-azabicyclo[2.2.2]octan-5-yl)methyl)cyclopropyl)methoxy)-1-fluoro-5-methyl-5°,6,7,8,9,10-hexahydro-5H-4-oxa-3,10°,11,13,14-pentaaza-6,9-methanonaphtho[1,8-ab]heptalen-2-yl)-6-methyl-5-(trifluoromethyl)pyridin-2-amine] | 1150 | 1.45
7 | C[C@@H]1Oc2nc(-c3cc(N)ccc3C(C)(C)C)c(F)c3nc(OC[C@@]45CCCN4C[C@H](F)C5)nc(c23)N2C[C@H]3CC[C@H](N3)[C@@H]12 [Compound 117, 4-(tert-butyl)-3-((5S,5aS,6S,9R)-1-fluoro-12-(((2R,7aS)-2-fluorotetrahydro-1H-pyrrolizin-7a(5H)-yl)methoxy)-5-methyl-5a,6,7,8,9,10-hexahydro-5H-4-oxa-3,10a,11,13,14-pentaaza-6,9-methanonaphtho[1,8-ab]heptalen-2-yl)aniline] | 4740 | 148
8 | Cc1nc(N)cc(-c2nc3c4c(nc(OCC5(CN6CC7CC(F)(F)C7C6)CC5)nc4c2F)N2C[C@H]4CC[C@H](N4)[C@H]2[C@H](C)O3)c1C(F)(F)F (mixture of isomers) [Compound 264, 4-((5S,5aS,6S,9R)-12-((1-((6,6-difluoro-3-azabicyclo[3.2.0]heptan-3-yl)methyl)cyclopropyl)methoxy)-1-fluoro-5-methyl-5a,6,7,8,9,10-hexahydro-5H-4-oxa-3,10a,11,13,14-pentaaza-6,9-methanonaphtho[1,8-ab]heptalene-2-yl)-6-methyl-5-(trifluoromethyl)pyridin-2-amine] | 11000 | 5.56
9 | Cc1c(F)c(N)cc(-c2nc3c4c(nc(OCC5CCC6CN(C)C(=O)CN56)nc4c2F)N2C[C@H]4CC[C@H](N4)[C@H]2[C@H](C)O3)c1C(F)(F)F (mixture of isomers) [Compound 124, 6-((((5S,5aS,6S,9R)-2-(5-Amino-4-fluoro-3-methyl-2-(trifluoromethyl)phenyl)-1-fluoro-5-methyl-5a,6,7,8,9,10-hexahydro-5H-4-oxa-3,10a,11,13,14-pentaaza-6,9-methanonaphtho[1,8-ab]heptalen-12-yl)oxy)methyl)-2-methylhexahydropyrrolo[1,2-a]pyrazin-3(4H)-one] | 12200 | 293
10 | C[C@@H]1Oc2nc(-c3cc(N)cc(C(F)(F)F)c3C(F)(F)F)c(F)c3nc(OC[C@@]45CCCN4C[C@H](F)C5)nc(c23)N2C[C@H]3CC[C@H](N3)[C@@H]12 [Compound 115, 3-((5S,5aS,6S,9R)-1-fluoro-12-(((2R,7aS)-2-fluorotetrahydro-1H-pyrrolizin-7a(5H)-yl)methoxy)-5-methyl-5a,6,7,8,9,10-hexahydro-5H-4-oxa-3,10a,11,13,14-pentaaza-6,9-methanonaphtho[1,8-ab]heptalen-2-yl)-4,5-bis(trifluoromethyl)aniline] | 2710 | 15.7
11 | Cc1cc(N)cc(-c2nc3c4c(nc(OC[C@@H]5CC[C@H]6COCCN65)nc4c2F)N2C[C@H]4CC[C@H](N4)[C@H]2[C@H](C)O3)c1CC(F)F [Compound 230, 4-(2,2-Difluoroethyl)-3-((5S,5aS,6S,9R)-1-fluoro-12-(((6S,8aS)-hexahydro-1H-pyrrolo[2,1-c][1,4]oxazin-6-yl)methoxy)-5-methyl-5a,6,7,8,9,10-hexahydro-5H-4-oxa-3,10a,11,13,14-pentaaza-6,9-methanonaphtho[1,8-ab]heptalen-2-yl)-5-methylaniline] | 5840 | 28.4
12 | Cc1c(F)c(N)cc(-c2nc3c4c(nc(OC[C@@H]5CC[C@H]6COCCN65)nc4c2F)N2C[C@H]4CC[C@H](N4)[C@H]2[C@H](C)O3)c1CC(F)(F)F [Compound 113, 2-fluoro-5-((5S,5aS,6S,9R)-1-fluoro-12-(((6S,8aS)-hexahydro-1H-pyrrolo[2,1-c][1,4]oxazin-6-yl)methoxy)-5-methyl-5a,6,7,8,9,10-hexahydro-5H-4-oxa-3,10a,11,13,14-pentaaza-6,9-methanonaphtho[1,8-ab]heptalen-2-yl)-3-methyl-4-(2,2,2-trifluoroethyl)aniline] | 1170 | 2.91
13 | Cc1nc(N)cc(-c2nc3c4c(nc(OC[C@@]56CCCN5C[C@H](F)C6)nc4c2F)N2C[C@H]4CC[C@H](N4)[C@H]2[C@H](C)O3)c1CC(F)F [Compound 189, 5-(2,2-Difluoroethyl)-4-((5S,5aS,6S,9R)-1-fluoro-12-(((2R,7aS)-2-fluorotetrahydro-1H-pyrrolizin-7a(5H)-yl)methoxy)-5-methyl-5a,6,7,8,9,10-hexahydro-5H-4-oxa-3,10a,11,13,14-pentaaza-6,9-methanonaphtho[1,8-ab]heptalene-2-yl)-6-methylpyridin-2-amine] | 20000 | 95.4

From US12338256B2, “Aza-tetracyclic oxazepine compounds and uses thereof” (Genentech, Inc., priority 2022, dated 2025)
